Experiments:
isolate B715 = assay: Disc diffusion antimicrobial susceptibility testing; assay type: cell-based, Staphylococcus pseudolugdunensis; settings: isolate 13715; also: key: R—resistant; S—susceptible
Protocol: (§1) In vitro antimicrobial susceptibility testing for amoxicillin-clavulanate, cefazolin, clindamycin, erythromycin, gentamicin, levofloxacin, minocycline, penicillin, rifampin, trimethoprim/sulfamethoxazole (SXT) and vancomycin was determined by a disc diffusion method in accordance with Clinical and Laboratory Standards Institute guidelines (CLSI Performance standards for antimicrobial disk susceptibility tests; Approved standard, 9th ed. (2006) Clinical and Laboratory Standards Institute, Wayne, Pa.).

isolate B277 = assay: as above; assay type: cell-based, Staphylococcus pseudolugdunensis; settings: isolate 8277; also: key: R—resistant; S—susceptible
Protocol: as §1

isolate B287 = assay: as above; assay type: cell-based, Staphylococcus pseudolugdunensis; settings: isolate 8287; also: key: R—resistant; S—susceptible
Protocol: as §1

isolate B354 = assay: as above; assay type: cell-based, Staphylococcus pseudolugdunensis; also: key: R—resistant; S—susceptible
Protocol: as §1

isolate B334 = assay: as above; assay type: cell-based, Staphylococcus pseudolugdunensis; also: key: R—resistant; S—susceptible
Protocol: as §1

isolate B333 = assay: as above; assay type: cell-based, Staphylococcus pseudolugdunensis; also: key: R—resistant; S—susceptible
Protocol: as §1

isolate B060 = assay: as above; assay type: cell-based, Staphylococcus pseudolugdunensis; also: key: R—resistant; S—susceptible
Protocol: as §1

isolate B739 = assay: as above; assay type: cell-based, Staphylococcus pseudolugdunensis; settings: isolate 8739; also: key: R—resistant; S—susceptible
Protocol: as §1

isolate B006 = assay: as above; assay type: cell-based, Staphylococcus pseudolugdunensis; also: key: R—resistant; S—susceptible
Protocol: as §1

isolate B837 = assay: as above; assay type: cell-based, Staphylococcus pseudolugdunensis; also: key: R—resistant; S—susceptible
Protocol: as §1

isolate B292 = assay: as above; assay type: cell-based, Staphylococcus pseudolugdunensis; settings: isolate 13292; also: key: R—resistant; S—susceptible
Protocol: as §1

isolate B230 = assay: as above; assay type: cell-based, Staphylococcus pseudolugdunensis; also: key: R—resistant; S—susceptible
Protocol: as §1

12 isolates = assay: Disc diffusion antimicrobial susceptibility testing, all isolates; assay type: cell-based, Staphylococcus pseudolugdunensis
Protocol: as §1

isolates B230 and B333 = assay: Clinical case of intravenous line-associated infection; assay type: in vivo, human; settings: patient with intravenous line-associated infection, line removed
Protocol: The relatedness of these 12 ODC/PYR-positive CoNS was further analyzed by pulsed field gel electrophoresis (PFGE). All isolates were unrelated, except for two isolates (B230 and B333) which were recovered from the same patient over a 16-day interval. […] Vancomycin was administered and the line removed.
Medical records of the 11 patients from whom these isolates were recovered were reviewed and the demographic and clinical information are listed in Table 3. Two isolates (B230 and B333), which were recovered from the same patient over a 16-day interval, were considered to be the pathogen that caused an intravenous line-associated infection. The remaining 10 isolates were considered to be contaminants. Antibiotics, including vancomycin, were administered in 6 (54.5%) cases, including one case in which the two isolates were considered pathogens and in 5 of 10 cases in which the isolates were considered contaminants (Table 3).

Molecule: Cc1nnc(SCC2=C(C(=O)O)N3C(=O)[C@@H](NC(=O)Cn4cnnn4)[C@H]3SC2)s1 [Cefazolin]
- Antimicrobial susceptibility (isolate B715): R
- Antimicrobial susceptibility (isolate B277): S
- Antimicrobial susceptibility (isolate B287): S
- Antimicrobial susceptibility (isolate B354): S
- Antimicrobial susceptibility (isolate B334): R
- Antimicrobial susceptibility (isolate B333): S
- Antimicrobial susceptibility (isolate B060): S
- Antimicrobial susceptibility (isolate B739): R
- Antimicrobial susceptibility (isolate B006): R
- Antimicrobial susceptibility (isolate B837): R
- Antimicrobial susceptibility (isolate B292): S
- Antimicrobial susceptibility (isolate B230): S

Molecule: CCC[C@@H]1C[C@@H](C(=O)N[C@@H]([C@H]2O[C@H](SC)[C@H](O)[C@@H](O)[C@H]2O)[C@H](C)Cl)N(C)C1 [Clindamycin]
- Antimicrobial susceptibility (isolate B715): S
- Antimicrobial susceptibility (isolate B277): S
- Antimicrobial susceptibility (isolate B287): S
- Antimicrobial susceptibility (isolate B354): S
- Antimicrobial susceptibility (isolate B334): R
- Antimicrobial susceptibility (isolate B333): R
- Antimicrobial susceptibility (isolate B060): S
- Antimicrobial susceptibility (isolate B739): R
- Antimicrobial susceptibility (isolate B006): S
- Antimicrobial susceptibility (isolate B837): R
- Antimicrobial susceptibility (isolate B292): S
- Antimicrobial susceptibility (isolate B230): S

Molecule: CC[C@H]1OC(=O)[C@H](C)[C@@H](O[C@H]2C[C@@](C)(OC)[C@@H](O)[C@H](C)O2)[C@H](C)[C@@H](O[C@@H]2O[C@H](C)C[C@H](N(C)C)[C@H]2O)[C@](C)(O)C[C@@H](C)C(=O)[C@H](C)[C@@H](O)[C@]1(C)O [Erythromycin]
- Antimicrobial susceptibility (isolate B715): S
- Antimicrobial susceptibility (isolate B277): S
- Antimicrobial susceptibility (isolate B287): S
- Antimicrobial susceptibility (isolate B354): S
- Antimicrobial susceptibility (isolate B334): R
- Antimicrobial susceptibility (isolate B333): R
- Antimicrobial susceptibility (isolate B060): S
- Antimicrobial susceptibility (isolate B739): R
- Antimicrobial susceptibility (isolate B006): R
- Antimicrobial susceptibility (isolate B837): R
- Antimicrobial susceptibility (isolate B292): S
- Antimicrobial susceptibility (isolate B230): S

Molecule: C[C@H]1COc2c(N3CCN(C)CC3)c(F)cc3c(=O)c(C(=O)O)cn1c23 [Levofloxacin]
- Antimicrobial susceptibility (isolate B715): R
- Antimicrobial susceptibility (isolate B277): S
- Antimicrobial susceptibility (isolate B287): R
- Antimicrobial susceptibility (isolate B354): S
- Antimicrobial susceptibility (isolate B334): R
- Antimicrobial susceptibility (isolate B333): S
- Antimicrobial susceptibility (isolate B060): S
- Antimicrobial susceptibility (isolate B739): S
- Antimicrobial susceptibility (isolate B006): S
- Antimicrobial susceptibility (isolate B837): S
- Antimicrobial susceptibility (isolate B292): S
- Antimicrobial susceptibility (isolate B230): R

Molecule: COc1cccc(OC)c1C(=O)N[C@@H]1C(=O)N2[C@@H]1SC(C)(C)[C@@H]2C(=O)O [Methicillin]
- Antimicrobial susceptibility (isolate B715): R
- Antimicrobial susceptibility (isolate B277): S
- Antimicrobial susceptibility (isolate B287): S
- Antimicrobial susceptibility (isolate B354): S
- Antimicrobial susceptibility (isolate B334): R
- Antimicrobial susceptibility (isolate B333): S
- Antimicrobial susceptibility (isolate B060): S
- Antimicrobial susceptibility (isolate B739): R
- Antimicrobial susceptibility (isolate B006): R
- Antimicrobial susceptibility (isolate B837): R
- Antimicrobial susceptibility (isolate B292): S
- Antimicrobial susceptibility (isolate B230): S

Molecule: CN(C)c1ccc(O)c2c1C[C@H]1C[C@H]3[C@H](N(C)C)C(O)=C(C(N)=O)C(=O)[C@@]3(O)C(O)=C1C2=O [Minocycline]
- Antimicrobial susceptibility (isolate B715): S
- Antimicrobial susceptibility (isolate B277): S
- Antimicrobial susceptibility (isolate B287): S
- Antimicrobial susceptibility (isolate B354): S
- Antimicrobial susceptibility (isolate B334): S
- Antimicrobial susceptibility (isolate B333): S
- Antimicrobial susceptibility (isolate B060): S
- Antimicrobial susceptibility (isolate B739): S
- Antimicrobial susceptibility (isolate B006): S
- Antimicrobial susceptibility (isolate B837): S
- Antimicrobial susceptibility (isolate B292): S
- Antimicrobial susceptibility (isolate B230): S

Molecule: CO[C@H]1/C=C/O[C@@]2(C)Oc3c(C)c(O)c4c(O)c(c(/C=N/N5CCN(C)CC5)c(O)c4c3C2=O)NC(=O)/C(C)=C\C=C\[C@H](C)[C@H](O)[C@@H](C)[C@@H](O)[C@@H](C)[C@H](OC(C)=O)[C@@H]1C [Rifampin]
- Susceptibility of all 12 isolates (12 isolates): susceptible
- Antimicrobial susceptibility (isolate B715): S
- Antimicrobial susceptibility (isolate B277): S
- Antimicrobial susceptibility (isolate B287): S
- Antimicrobial susceptibility (isolate B354): S
- Antimicrobial susceptibility (isolate B334): S
- Antimicrobial susceptibility (isolate B333): S
- Antimicrobial susceptibility (isolate B060): S
- Antimicrobial susceptibility (isolate B739): S
- Antimicrobial susceptibility (isolate B006): S
- Antimicrobial susceptibility (isolate B837): S
- Antimicrobial susceptibility (isolate B292): S
- Antimicrobial susceptibility (isolate B230): S

Molecule: CN[C@H](CC(C)C)C(=O)N[C@H]1C(=O)N[C@@H](CC(N)=O)C(=O)N[C@H]2C(=O)N[C@H]3C(=O)N[C@H](C(=O)N[C@H](C(=O)O)c4cc(O)cc(O)c4-c4cc3ccc4O)[C@H](O)c3ccc(c(Cl)c3)Oc3cc2cc(c3O[C@@H]2O[C@H](CO)[C@@H](O)[C@H](O)[C@H]2O[C@H]2C[C@](C)(N)[C@H](O)[C@H](C)O2)Oc2ccc(cc2Cl)[C@H]1O [Vancomycin]
- Patient outcome (isolates B230 and B333): recovered fully
- Susceptibility of all 12 isolates (12 isolates): susceptible
- Antimicrobial susceptibility (isolate B715): S
- Antimicrobial susceptibility (isolate B277): S
- Antimicrobial susceptibility (isolate B287): S
- Antimicrobial susceptibility (isolate B354): S
- Antimicrobial susceptibility (isolate B334): S
- Antimicrobial susceptibility (isolate B333): S
- Antimicrobial susceptibility (isolate B060): S
- Antimicrobial susceptibility (isolate B739): S
- Antimicrobial susceptibility (isolate B006): S
- Antimicrobial susceptibility (isolate B837): S
- Antimicrobial susceptibility (isolate B292): S
- Antimicrobial susceptibility (isolate B230): S

Molecule: Amoxicillin-clavulanate
- Antimicrobial susceptibility (isolate B715): R
- Antimicrobial susceptibility (isolate B277): S
- Antimicrobial susceptibility (isolate B287): S
- Antimicrobial susceptibility (isolate B354): S
- Antimicrobial susceptibility (isolate B334): R
- Antimicrobial susceptibility (isolate B333): S
- Antimicrobial susceptibility (isolate B060): S
- Antimicrobial susceptibility (isolate B739): R
- Antimicrobial susceptibility (isolate B006): R
- Antimicrobial susceptibility (isolate B837): R
- Antimicrobial susceptibility (isolate B292): S
- Antimicrobial susceptibility (isolate B230): S

Molecule: Gentamicin
- Susceptibility of all 12 isolates (12 isolates): susceptible
- Antimicrobial susceptibility (isolate B715): S
- Antimicrobial susceptibility (isolate B277): S
- Antimicrobial susceptibility (isolate B287): S
- Antimicrobial susceptibility (isolate B354): S
- Antimicrobial susceptibility (isolate B334): S
- Antimicrobial susceptibility (isolate B333): S
- Antimicrobial susceptibility (isolate B060): S
- Antimicrobial susceptibility (isolate B739): S
- Antimicrobial susceptibility (isolate B006): S
- Antimicrobial susceptibility (isolate B837): S
- Antimicrobial susceptibility (isolate B292): S
- Antimicrobial susceptibility (isolate B230): S

Molecule: Penicillin
- Antimicrobial susceptibility (isolate B715): R
- Antimicrobial susceptibility (isolate B277): S
- Antimicrobial susceptibility (isolate B287): R
- Antimicrobial susceptibility (isolate B354): S
- Antimicrobial susceptibility (isolate B334): R
- Antimicrobial susceptibility (isolate B333): R
- Antimicrobial susceptibility (isolate B060): R
- Antimicrobial susceptibility (isolate B739): R
- Antimicrobial susceptibility (isolate B006): R
- Antimicrobial susceptibility (isolate B837): R
- Antimicrobial susceptibility (isolate B292): R
- Antimicrobial susceptibility (isolate B230): R

Molecule: Trimethoprim/sulfamethoxazole
- Antimicrobial susceptibility (isolate B715): R
- Antimicrobial susceptibility (isolate B277): S
- Antimicrobial susceptibility (isolate B287): R
- Antimicrobial susceptibility (isolate B354): S
- Antimicrobial susceptibility (isolate B334): R
- Antimicrobial susceptibility (isolate B333): S
- Antimicrobial susceptibility (isolate B060): R
- Antimicrobial susceptibility (isolate B739): S
- Antimicrobial susceptibility (isolate B006): S
- Antimicrobial susceptibility (isolate B837): S
- Antimicrobial susceptibility (isolate B292): S
- Antimicrobial susceptibility (isolate B230): R
